Legend:
c-Abl kinase = molecular target: T1, c-Abl kinase (Homo sapiens, UniProt P00519); assay: c-Abl protein-tyrosine kinase filter binding assay; format: biochemical
T1 construct: The His-tagged kinase domain of c-Abl is cloned and expressed in the baculovirus/Sf9 system; His; made in house; host or cells: Sf9 insect cells (baculovirus)
T1 sequence (P00519 242-493 limits assumed): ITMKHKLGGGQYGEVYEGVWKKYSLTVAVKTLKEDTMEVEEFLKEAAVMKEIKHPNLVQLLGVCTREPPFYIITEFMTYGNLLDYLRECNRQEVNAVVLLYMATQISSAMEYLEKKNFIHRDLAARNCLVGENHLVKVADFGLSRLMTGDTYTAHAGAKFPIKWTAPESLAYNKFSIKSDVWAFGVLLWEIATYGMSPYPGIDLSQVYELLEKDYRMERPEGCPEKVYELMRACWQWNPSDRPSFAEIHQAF
Experimental: The His-tagged kinase domain of c-Abl is cloned and expressed in the baculovirus/Sf9 system as described by Bhat et al. in J. Biol. Chem. 1997; 272:16170-16175. A protein of 37 kD (c-Abl kinase) is purified by a two-step procedure over a Cobalt metal chelate column followed by an anion exchange column with a yield of 1-2 mg/L of Sf9 cells (Bhat et al., reference cited). The purity of the c-Abl kinase is >90% as judged by SDS-PAGE after Coomassie blue stai-ning. The assay contains (total volume of 30 μL): c-Abl kinase (50 ng), 20 mM Tris.HCl, pH 7.5, 10 mM MgCl2, 10 μM Na3VO4, 1 mM DTT and 0.06 μCi/assay [γ33 P]-ATP (5 μM ATP) using 30 μg/mL poly-Ala, Glu, Lys, Tyr-6:2:5:1 (Poly-AEKY, Sigma P1152) in the presence of 1% DMSO. Reactions are terminated by adding 10 μL of 250 mM EDTA and 30 μL of the reaction mixture is transferred onto Immobilon-PVDF membrane (Millipore, Bedford, Mass., USA) previously soaked for 5 min with methanol, rinsed with water, then soaked for 5 min with 0.5% H3PO4 and mounted on vacuum manifold with disconnected vacuum source. After spotting all samples, vacuum is connected and each well rinsed with 200 μL 0.5% H3PO4. […] Membranes are counted after drying at ambient temperature, mounting in Packard TopCount 96-well frame, and addition of 10 μL/well of Microscint™ (Packard).

human EphB4 = molecular target: T2, human EphB4 (Homo sapiens, UniProt P54760); assay: EphB4 receptor autophosphorylation sandwich ELISA in transfected A375 human melanoma cells; format: cell-based; conditions: EphB4 receptor auto-phosphorylation in vitro on cells
T2 construct: expressed in transfected cells; host or cells: A375 human melanoma cells (ATCC CRL-1619)
T2 sequence (P54760 16-987): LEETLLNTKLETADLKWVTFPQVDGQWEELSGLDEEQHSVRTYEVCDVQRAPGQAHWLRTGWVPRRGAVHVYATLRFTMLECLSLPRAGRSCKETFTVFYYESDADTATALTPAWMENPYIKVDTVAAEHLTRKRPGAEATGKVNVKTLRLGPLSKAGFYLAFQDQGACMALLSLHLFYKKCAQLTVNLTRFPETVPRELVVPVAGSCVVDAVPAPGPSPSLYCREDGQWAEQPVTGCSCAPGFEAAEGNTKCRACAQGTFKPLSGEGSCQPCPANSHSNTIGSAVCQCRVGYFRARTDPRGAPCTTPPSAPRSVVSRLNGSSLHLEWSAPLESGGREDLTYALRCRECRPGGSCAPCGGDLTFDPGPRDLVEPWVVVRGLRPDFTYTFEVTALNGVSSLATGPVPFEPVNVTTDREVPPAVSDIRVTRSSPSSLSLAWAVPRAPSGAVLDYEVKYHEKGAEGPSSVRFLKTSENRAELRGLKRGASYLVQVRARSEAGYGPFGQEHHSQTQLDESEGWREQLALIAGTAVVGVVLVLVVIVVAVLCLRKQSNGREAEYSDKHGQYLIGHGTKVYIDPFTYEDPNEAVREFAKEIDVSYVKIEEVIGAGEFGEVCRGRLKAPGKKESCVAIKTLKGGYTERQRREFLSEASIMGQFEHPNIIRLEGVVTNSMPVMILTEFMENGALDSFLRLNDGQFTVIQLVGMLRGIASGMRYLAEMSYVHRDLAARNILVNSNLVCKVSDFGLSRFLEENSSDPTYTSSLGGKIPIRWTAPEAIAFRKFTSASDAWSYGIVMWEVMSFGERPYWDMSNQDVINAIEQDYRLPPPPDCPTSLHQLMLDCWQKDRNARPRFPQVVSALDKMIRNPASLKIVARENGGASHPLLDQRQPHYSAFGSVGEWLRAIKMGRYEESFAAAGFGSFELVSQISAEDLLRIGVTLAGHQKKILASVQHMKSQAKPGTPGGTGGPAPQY
Experimental: Alternatively, EphB4 receptor autophosphorylation can be measured as follows: The inhibition of EphB4 receptor autophosphorylation can be confirmed with an in vitro experiment in cells such as transfected A375 human melanoma cells (ATCC Number: CRL-1619), which permanently express human EphB4 (SwissProt AccNo P54760), are seeded in complete culture medium (with 10% fetal calf serum ═FCS) in 6-well cell-culture plates and incubated at 37° C. under 5% CO2 until they show about 90% confluency. The compounds to be tested are then diluted in culture medium (without FCS, with 0.1% bovine serum albumin) and added to the cells. (Controls comprise medium without test compounds). Ligand induced autophosphorylation is induced by the addition of 1 microg/ml soluble ephrinB2-Fc (s-ephrinB2-Fc: R&D Biosystems, CatNr 496-EB) and 0.1 microM ortho-vanadate. After a further 20 minutes incubation at 37° C., the cells are washed twice with ice-cold PBS (phosphate-buffered saline) and immediately lysed in 200 μl lysis buffer per well. The lysates are then centrifuged to remove the cell nuclei, and the protein concentrations of the supernatants are determined using a commercial protein assay (PIERCE). The lysates can then either be immediately used or, if necessary, stored at −20° C. […]

human EphB4 receptor = molecular target: T3, human EphB4 receptor (Homo sapiens, UniProt P54760); assay: EphB4 kinase assay on recombinant Ephrin B4 receptor domains (33P filter assay); format: biochemical
T3 construct: made in house; host or cells: Sf9 or Sf21 insect cells (baculovirus)
T3 sequence (P54760 566-987): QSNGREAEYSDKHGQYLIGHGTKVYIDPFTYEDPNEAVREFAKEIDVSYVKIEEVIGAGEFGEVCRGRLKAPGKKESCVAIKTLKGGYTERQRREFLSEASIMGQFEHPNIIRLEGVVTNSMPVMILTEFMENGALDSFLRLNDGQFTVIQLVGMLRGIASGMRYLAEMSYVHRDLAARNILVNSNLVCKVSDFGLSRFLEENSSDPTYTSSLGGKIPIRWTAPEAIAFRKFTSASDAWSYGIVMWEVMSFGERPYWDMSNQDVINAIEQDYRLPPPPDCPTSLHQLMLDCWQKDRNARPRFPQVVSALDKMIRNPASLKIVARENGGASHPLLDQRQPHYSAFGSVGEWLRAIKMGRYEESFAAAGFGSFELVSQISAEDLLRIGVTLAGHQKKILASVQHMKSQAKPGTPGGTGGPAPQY
From the text: Recombinant baculovirus are generated that express the amino acid region 566-987 of the human EphB4 receptor (SwissProt Database, Accession No. P54760). GST sequence is cloned into pFastBac1® vector (Invitrogen Life Technologies, Basel, Switzerland) and PCR amplified. cDNAs encoding EphB4-receptor domains, respectively are cloned in frame 3′prime to the GST sequence into this modified FastBac1 vector to generate pBac-to-Bac™ donor vectors. Single colonies arising from the transformation are inoculated to give overnight cultures for small scale plasmid preparation. […] By automated sequencing the inserts and approximately 50 bp of the flanking vector sequences are confirmed on both strands.
Production of viruses: Viruses for each of the kinases are made according to the protocol supplied by GIBCO if not stated otherwise. In brief, transfer vectors containing the kinase domains are transfected into the DH10Bac cell line (GIBCO) and plated on selective agar plates. […]
Purification of GST-tagged kinases: The centrifuged cell lysate is loaded onto a 2 mL glutathione-sepharose column (Pharmacia) and washed three times with 10 mL of 25 mM Tris-HCl, pH 7.5, 2 mM EDTA, 1 mM DTT, 200 mM NaCl. […] Membranes are counted after drying at ambient temperature, mounting in Packard TopCount96-well frame, and addition of 10 μL/well of Microscint™ (Packard). […]

COc1ccc(-c2cnn3c(N)c(-c4ccc(F)cc4)c(CN4CCNCC4)nc23)cc1OC [Example 2, 3-(3,4-Dimethoxy-phenyl)-6-(4-fluoro-phenyl)-5-piperazin-1-ylmethyl-pyrazolo[1,5-a]pyrimidin-7-ylamine]
1 to 1000 nM: c-Abl IC50 (c-Abl kinase) | EphB4 ELISA - IC50 (human EphB4) | EphB4 IC50 (human EphB4 receptor)

COc1ccc(-c2cnn3c(N)c(-c4cccc(Cl)c4)c(CN4CCNCC4)nc23)cc1OC [Example 1, 6-(3-Chloro-phenyl)-3-(3,4-dimethoxy-phenyl)-5-piperazin-1-ylmethyl-pyrazolo[1,5-a]pyrimidin-7-ylamine]
1 to 1000 nM: c-Abl IC50 (c-Abl kinase) | EphB4 ELISA - IC50 (human EphB4) | EphB4 IC50 (human EphB4 receptor)
